Activity calls are given as the source filed them. The calls are words filed in the database; no cut-off is given here.
What was measured:
Hep 3B2 = experiment: Cytotoxicity against human Hep3B cells assessed as reduction in cell viability by MTT assay; format: functional, cell-based
Bile acid receptor [1] = biological target: T1, Bile acid receptor (Homo sapiens, UniProt Q96RI1); experiment: Antagonist activity at GST-tagged FXR LBD (unknown origin) assessed as inhibition of GW4064-induced fluorecein-labeled SRC2-2 coactivator recruitment by Lanthascreen TR-FRET assay
T1 sequence (Q96RI1 whole entry): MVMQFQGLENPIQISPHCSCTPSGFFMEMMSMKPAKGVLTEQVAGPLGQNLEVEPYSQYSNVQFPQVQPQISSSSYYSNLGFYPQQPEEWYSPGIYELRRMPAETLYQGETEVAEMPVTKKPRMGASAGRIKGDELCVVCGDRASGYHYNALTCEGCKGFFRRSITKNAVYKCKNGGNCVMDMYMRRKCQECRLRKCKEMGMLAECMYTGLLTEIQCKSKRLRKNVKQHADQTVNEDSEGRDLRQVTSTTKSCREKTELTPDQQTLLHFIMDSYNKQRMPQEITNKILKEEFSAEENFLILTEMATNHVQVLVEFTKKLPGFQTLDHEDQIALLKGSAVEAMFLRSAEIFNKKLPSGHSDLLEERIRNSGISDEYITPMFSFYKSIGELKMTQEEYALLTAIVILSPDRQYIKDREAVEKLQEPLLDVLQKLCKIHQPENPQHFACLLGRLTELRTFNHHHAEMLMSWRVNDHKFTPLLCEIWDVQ

[2] = biological target: T2, Oxysterols receptor LXR-beta (Homo sapiens) (UniProt P55055); experiment: Antagonist activity at LXRbeta (unknown origin) assessed as inhibition of TO901317-induced response at 1 uM by luciferase reporter gene assay
T2 sequence (whole entry): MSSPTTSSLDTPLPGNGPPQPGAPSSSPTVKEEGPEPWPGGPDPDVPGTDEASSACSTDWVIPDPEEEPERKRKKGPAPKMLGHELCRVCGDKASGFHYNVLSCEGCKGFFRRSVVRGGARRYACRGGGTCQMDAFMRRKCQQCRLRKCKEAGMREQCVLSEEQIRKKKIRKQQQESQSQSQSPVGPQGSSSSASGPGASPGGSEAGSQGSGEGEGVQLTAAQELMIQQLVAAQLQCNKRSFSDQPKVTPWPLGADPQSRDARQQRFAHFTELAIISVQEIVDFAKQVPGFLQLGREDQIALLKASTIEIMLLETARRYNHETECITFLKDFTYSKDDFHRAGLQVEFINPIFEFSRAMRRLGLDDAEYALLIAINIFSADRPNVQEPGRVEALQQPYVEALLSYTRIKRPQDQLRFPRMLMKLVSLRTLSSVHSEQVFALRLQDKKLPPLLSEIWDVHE

[3] = biological target: T3, Retinoic acid receptor RXR-alpha (Homo sapiens) (UniProt P19793); experiment: Antagonist activity at human RXRalpha expressed in HEK293T cells assessed as inhibition of 9-cis-retinoic acid-induced response at 1 uM after 24 hrs by luciferase reporter gene assay; format: cell-based
T3 sequence (whole entry): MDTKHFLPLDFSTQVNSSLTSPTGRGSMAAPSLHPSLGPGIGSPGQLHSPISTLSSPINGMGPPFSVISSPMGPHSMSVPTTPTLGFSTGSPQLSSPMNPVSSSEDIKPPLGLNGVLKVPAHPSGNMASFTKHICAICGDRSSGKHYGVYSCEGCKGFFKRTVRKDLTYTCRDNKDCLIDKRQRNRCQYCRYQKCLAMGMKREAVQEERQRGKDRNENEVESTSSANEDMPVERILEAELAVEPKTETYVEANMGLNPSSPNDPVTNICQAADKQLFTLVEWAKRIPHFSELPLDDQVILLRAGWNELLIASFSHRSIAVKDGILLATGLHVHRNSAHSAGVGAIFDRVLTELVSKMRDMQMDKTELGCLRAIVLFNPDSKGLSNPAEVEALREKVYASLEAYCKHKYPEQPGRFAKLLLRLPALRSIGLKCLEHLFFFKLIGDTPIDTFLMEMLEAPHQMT

3T3-L1 = experiment: Antiadipogenic activity in mouse 3T3L1 cells assessed as inhibition of CDCA-induced intracellular lipid droplets after 6 days by Oil Red O staining based assay; format: functional, cell-based
Bile acid receptor [4] = biological target: T1, Bile acid receptor; experiment: Antagonist activity at FXR in human HepG2 cells assessed as inhibition of CYP3A4 mRNA expression level at 0.02 to 2 uM after 48 hrs by RT-PCR analysis; format: ADME, cell-based; settings: hepg2, 48 h
Bile acid receptor [5] = biological target: T1, Bile acid receptor; experiment: Antagonist activity at human FXR expressed in Hep3B cells assessed as inhibition of CDCA-induced FXR response element driven luciferase activity after 24 hrs; format: cell-based
[6] = biological target: T4, Peroxisome proliferator-activated receptor alpha (Homo sapiens) (UniProt Q07869); experiment: Antagonist activity at PPARalpha (unknown origin) assessed as inhibition of GW7647-induced response at 1 uM by luciferase reporter gene assay
T4 sequence (whole entry): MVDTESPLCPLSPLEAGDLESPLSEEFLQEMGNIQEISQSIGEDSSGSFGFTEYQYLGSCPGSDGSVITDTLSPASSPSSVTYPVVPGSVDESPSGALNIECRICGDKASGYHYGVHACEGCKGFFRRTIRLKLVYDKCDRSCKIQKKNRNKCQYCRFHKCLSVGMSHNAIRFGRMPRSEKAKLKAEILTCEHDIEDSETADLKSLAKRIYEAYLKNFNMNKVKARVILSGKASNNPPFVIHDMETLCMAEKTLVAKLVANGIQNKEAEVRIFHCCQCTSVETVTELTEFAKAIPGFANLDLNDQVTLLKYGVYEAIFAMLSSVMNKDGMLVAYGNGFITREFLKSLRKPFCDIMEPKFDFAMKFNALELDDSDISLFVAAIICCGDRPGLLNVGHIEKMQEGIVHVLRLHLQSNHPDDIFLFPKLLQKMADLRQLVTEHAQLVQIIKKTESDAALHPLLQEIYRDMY

[7] = biological target: T5, Oxysterols receptor LXR-alpha (Homo sapiens) (UniProt Q13133); experiment: Antagonist activity at LXRalpha (unknown origin) assessed as inhibition of TO901317-induced response at 1 uM by luciferase reporter gene assay
T5 sequence (whole entry): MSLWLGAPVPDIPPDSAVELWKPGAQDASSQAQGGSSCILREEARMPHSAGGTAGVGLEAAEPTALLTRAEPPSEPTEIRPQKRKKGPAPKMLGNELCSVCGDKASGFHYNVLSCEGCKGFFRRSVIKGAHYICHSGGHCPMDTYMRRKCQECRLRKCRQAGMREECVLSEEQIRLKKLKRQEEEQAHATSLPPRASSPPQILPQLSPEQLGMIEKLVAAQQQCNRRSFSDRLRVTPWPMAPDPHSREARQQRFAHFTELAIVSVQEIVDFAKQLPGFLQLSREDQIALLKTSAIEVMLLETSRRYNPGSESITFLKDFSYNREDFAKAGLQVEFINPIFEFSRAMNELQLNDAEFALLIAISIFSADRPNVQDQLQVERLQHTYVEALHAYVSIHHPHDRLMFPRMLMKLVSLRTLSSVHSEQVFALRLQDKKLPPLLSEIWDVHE

**Q.** Which IC50 (Hep 3B2) does the source give for `Cc1ccc2nc([C@H](CC3CCN(C(=O)C(C)C)CC3)N3C(=O)CN(c4ccc(Oc5ccccc5)cc4)C3=O)n(C)c2c1` here?
**A.** > 100000 nM

**Q.** What about the IC50 (Bile acid receptor [1]) of the same compound?
**A.** 35 nM

**Q.** What about the inhibition [2] of the same compound?
**A.** inactive

**Q.** What about the inhibition [3] of the same compound?
**A.** inactive

**Q.** What about the inhibition (3T3-L1) of the same compound?
**A.** Dose-dependent effect

**Q.** What about the “inhibition (INH)” value (Bile acid receptor [4]) of the same compound?
**A.** Not Active

**Q.** And the IC50 (Bile acid receptor [5])?
**A.** < 0.001 nM

**Q.** And the inhibition [6]?
**A.** inactive

**Q.** What about the inhibition [7] of the same compound?
**A.** inactive

— ChEMBL document CHEMBL4138296, “Nonacidic Chemotype Possessing N-Acylated Piperidine Moiety as Potent Farnesoid X Receptor (FXR) Antagonists” (ACS Med Chem Lett, 2018)
